The values that follow come from patent US20080161232A1, “C5a Receptor Antagonist” (JERINI AG, priority 2005, published 2008).

The target of series [1] is T1, human C5aR(CD88) (Homo sapiens, UniProt P21730).
T1 construct: expressed in transfected cells; host or cells: rat basophilic leukemia cells (RBL)
T1 sequence (P21730 1-350): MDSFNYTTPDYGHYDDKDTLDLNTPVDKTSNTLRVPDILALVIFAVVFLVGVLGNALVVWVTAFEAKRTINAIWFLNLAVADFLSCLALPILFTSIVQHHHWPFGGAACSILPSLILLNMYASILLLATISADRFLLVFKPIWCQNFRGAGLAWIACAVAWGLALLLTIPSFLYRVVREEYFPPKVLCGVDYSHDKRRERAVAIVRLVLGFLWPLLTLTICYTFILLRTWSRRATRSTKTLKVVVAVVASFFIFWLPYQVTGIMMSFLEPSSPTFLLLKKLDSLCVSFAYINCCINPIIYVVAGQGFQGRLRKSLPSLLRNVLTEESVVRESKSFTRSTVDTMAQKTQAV
In words: Determination of the IC50 value in an enzyme release assay (functional assay, antagonistic activity). In kind it is cell-based. To be noted: for inhibitory activity (in words): functional assay of example 11, noteworthy = IC50 less than 200 nM.

Series [2] deals with T1, human C5aR(CD88). Nature of the series: Determination of EC50-values in an enzyme release assay (agonistic activity). It counts as cell-based. To be noted: for agonistic activity (in words): cellular assay, up to a concentration of at least 1430 nM. As for the experimental part: The assay procedure was described by Kohl (Kohl 1997 The Anaphylatoxins. In: Dodds, A. W., Sim, R. B. (Eds.), Complement: A Practical Approach. Oxford, pp. 135-163). Basophilic leukemia cells from rats (RBL), which express the human C5aR(CD88), were cultivated in DMEM with 10% fetal bovine serum, 100 U/ml penicillin, 100 μg/ml streptomycin and 2 mM glutamine (all components of the media from Biochrome, Berlin) to confluence at 37° C. and 10% CO2. The following specifications refer to single cell culture flask having a surface of 75 cm^2. Medium was decanted from cells. Cells were washed with 10 ml PBS (Dulbecco's PBS, Biochrome) and subsequently overlayed with 3 ml Cell Dissociation Solution (CDS, Sigma). Cells were incubated for 1 min at room temperature. Subsequently, CDS was removed and the cells were further incubated for 10-15 min at 37° C. for dissociation. In the assay, 20 μl of the solution containing the compound to be tested were used. This solution should not contain more than 2.8% DMSO. For the dilution process, the compounds were diluted in ⅓ or ½ steps. To 20 μl compound solution 75 μl of the RBL-cells were added, which were treated as follows: after dissociation cells were detached and warmed at 37° C. in 10 ml HAG-CM (20 mM HEPES; 125 mM NaCl, 5 mM KCl, 1 mM CaCl2, 1 mM MgCl2, 0,5 mM Glucose, 0,25% BSA. HEPES-preparation: 2.3 g/l HEPES-salt +2.66 g/l HEPES acid). Cells were counted and centrifuged (200×g, 10 min). The cell pellet was resuspended in preheated HAG-CM (i.e. Hepes-buffer NaCl-glucose-solution with calcium and magnesium), and the cell density was adjusted to 2×10^6 cells/ml. The cells were incubated at 37° C. for 5 min. Per ml cell suspension 27 μl of a cytochalasin B-solution were added (100 μg/ml in DMSO, Sigma). The cells were incubated for further 3 min at 37° C. 75 μl of the cell suspension were added to 20 μl compound solution leading to a volume of 95 μl per well. After incubation of the cells for 10 min at 37° C. 10 μl hrC5a (10.5 nM in HAG-CM, Sigma) per well were added. The cells were incubated for additional 5 min at 37° C. The mtp was then transferred to ice and centrifuged for 3 min at 4° C. with 1200×g. 75 μl of the supernatant were added to 100 μl substrate-solution (2.7 mg/ml p-nitrophenyl-N-acetyl-β-D-glucosaminide (Sigma) in 42.5 mM Na-acetate pH 4.5). The mtp was incubated for further 60 min at 37° C. 75 μl 0.4 M glycine pH 10.4 were added per well. The mtp was transferred into a reader and the absorption at 405 nm was measured. IC50-values were obtained following the equation; y=((A-D)/(1+(x/C)^B))+D.
Determination of EC50-Values in an Enzyme Release Assay
The determination of EC50-values was performed according to the procedure given in example II, with the exception that 30 μl of the test compound need to be mixed with 75 μl of the cell suspension mentioned in example 11. Neither preincubation nor addition of C5a for stimulation of enzyme release is needed.

In a further series the test system is BALB/c mice. Nature of the series: Model of immune complex mediated peritonitis (reverse passive Arthus reaction). In kind it is in vivo. To be noted: 1 mg/kg i.v. 15 min before Arthus reaction, lavage after 6 h, FIG. 1. An excerpt: Efficacy of compound 149 in a model of immune complex mediated peritonitis
Immune complex mediated peritonitis resembles the pathological conditions of immune complex related diseases like vasculitis, nephritis, arthritis, and farmer's disease. The associated animal model was described by Heller et al. (1999 Journal of Immunology 163: 985-994) and takes advantage of the pro-inflammatory effects of immune complexes formed after i.v. administration of the antigen and i.p. administration of the antibody.
BALB/c mice (6-8 weeks old) were treated i.v. with compound 149 (1 mg/kg bodyweight in 200 μl vehicle) 15 min before the initiation of the reverse passive Arthus reaction. Arthus reaction was induced through the administration of OVA (20 mg/kg i.v. in 200 μl PBS) and polyclonal anti-OVA Ab (rabbit; 800 μg/Maus i.p). After 6 h a peritoenal lavage with 2 ml PBS 0.1% BSA was done. The collected PE-cells were stained with DIFF-Quick. At least 20 visual fields (100× magnification) were analyzed for the presence of neutrophils.

The next series relates to Wistar rats. Nature of the series: Model of C5a induced neutropenia. To be noted: i.v. infusion 10 min before 2 μg/kg hr C5a i.v., FIG. 2. It counts as in vivo. An excerpt: Efficacy of compound 149 in a model of C5a induced neutropenia
C5a induced neutropenia is a model for shock induced diseases (e.g. septic shock), where the systemic role of C5a (neutropenia, blood pressure decrease) plays an important role. The reason for the decrease of the neutrophils in the circulation is their binding to the vessel walls due to the C5a stimulus. These processes of neutrophil recruitment are playing an important role in many other diseases like reperfusion injury. This model was also described by Short et al. (1999 British Journal of Pharmacology 125: 551-554).
Female Wistar rats were treated i.p. with ketamine (80 mg/kg) and xylazine (12 mg/kg). A catheter was introduced in the jugular vein and the animals were subjected to the following procedure:
1. Rats were treated with vehicle or compounds according to the invention like compound 149 via i.v. infusion. A blood sample was taken one minute before compound treatment. 2. 10 min after compound infusion rats were treated with 2 μg/kg hr C5a i.v. (2 μg/kg over 1 min). […]
White blood cell count was measured with a haematology-cell-counter. […]
The differential cell count was determined as the sum of neutrophils, eosinophils, basophils, lymphocytes and monocytes of 100 cells. Then the percentage of the neutrophils in relation to all white blood cells was calculated.

For the next series, the system named is human PMNs. To be noted: cellular myeloperoxidase release assay with human PMNs; read-out: IC50 (antagonistic activity), WO 99/00406; cited from earlier work.
The nature of series [3]: Solubility determination for selected C5aR-antagonists. In kind it is physicochemical. To be noted: for Solubility in 20 mM HEPES pH 7.4 (% of 200 μM): 20 mM HEPES pH 7.4, 24 h at RT. As for the experimental part:
Solubility Determination for Selected C5aR-Antagonists
[…] The undissolved part was removed by centrifugation after 24 h. The UV-absorption of the supernatant was measured and compared to a reference solution of the compound in 60% MeOH.

Series [4] in a line: Measurement of the AB-permeability in a TC-7 based assay-system. In kind it is in vitro ADME. To be noted: human. As for the experimental part: Measurement of the AB-Permeability in a TC-7 Based Assay-System The screening compounds are diluted to a 50 μM solution in HBSS-MES (5 mM, pH 6.5) from 10 mM stock solution in 100% DMSO. ^14C-mannitol (approx. 4 μM) is added to the sample. The solution is centrifuged and the supernatant is added to the apical side of the TC-7 cell culture (passage 15, in 24 well transwell plate) to a final DMSO-concentration of 1%. HBSS-HEPES (5 mM, pH 7.4) is placed at the basolateral side. The cells were incubated for 120 min at 37° C.

The target of series [5] is T2, C5aR (Homo sapiens, UniProt P21730).
T2 construct: measurements with isolated membranes from polymorphonuclear neutrophilic granulocytes (PMN membranes); host or cells: isolated PMN membranes (endogenous receptor)
T2 sequence (P21730 1-350): T1 sequence (P21730 1-350)
To be noted: compound numbers of WO 03/033528; read-out: IC50 as a measure for affinity, WO 03/033528; cited from earlier work.

Series [6] concerns the target T2, C5aR. To be noted: compound numbers of WO 03/033528; read-out: antagonistic activity, WO 03/033528; cited from earlier work.
In series [7] the target is T2, C5aR. To be noted: PMN membranes; examples of WO 90/09162; read-out: IC50 (binding), WO 90/09162; cited from earlier work.
Setting [8] is: antagonistic activity, IC50 group in enzyme release assay, RBL cells expressing human C5aR(CD88), read-out: activity (group).

Like-named read-outs stand apart in the source and are kept apart here. Positions of bridges follow the written chain, without caps; N, C: chain ends. Non-standard residues stand in square brackets, D forms with d. Residues, ends and D or L forms follow the SMILES beside them. Bta = N[C@@H](Cc1csc2ccccc12)C(=O)O; Hyp = O=C(O)[C@@H]1C[C@@H](O)CN1; d(hLeu) = CC(C)CC[C@@H](N)C(=O)O; dCha = N[C@H](CC1CCCCC1)C(=O)O; Orn = NCCC[C@H](N)C(=O)O

Take `CC(=O)N[C@@H](Cc1ccccc1)C(=O)N[C@@H](CCCN)C(=O)N1CCC[C@H]1C(=O)N[C@H](CCC(C)C)C(=O)N[C@@H](Cc1csc2ccccc12)C(=O)N[C@@H](Cc1ccccc1)C(N)=O` [Compound 149, Ac-Phe-Orn-Pro-hle-Bta-Phe-NH2] (Ac-F[Orn]P[d(hLeu)][Bta]F-NH2): the IC50 on human C5aR(CD88) [1] (setting [8]) fell in the range of 10 to 20 nM. At human C5aR(CD88) [1], the “inhibitory activity (in words)” value was “noteworthy inhibitory activity”. Also, the “agonistic activity (in words)” value at human C5aR(CD88) [2] is reported as “pure antagonists”. Moreover, the “influx of neutrophils / pro-inflammatory cells into the peritoneum” value with BALB/c mice is on record as “reduction of the influx of pro-inflammatory cells into the peritoneum”. Moreover, in the series with Wistar rats, the “C5a-induced neutropenia (percentage of neutrophils over time)” value was “reduces the C5a-induced neutropenia remarkable”.

As for Me-Phe-Lys-Pro-cha-Trp-arg, the IC50 in the series on human PMNs was 85 nM.

As for `CC(=O)N[C@@H](Cc1ccccc1)C(=O)N[C@H]1CCCNC(=O)[C@H](Cc2ccccc2)NC(=O)[C@H](Cc2c[nH]c3ccccc23)NC(=O)[C@@H](CC2CCCCC2)NC(=O)[C@@H]2C[C@@H](O)CN2C1=O` [Compound 2, Ac-Phe-[Orn-Hyp-cha-Trp-Phe]] (Ac-F[Orn][Hyp][dCha]WF; lactam 2-C), on human C5aR(CD88) [1] (setting [8]), the IC50 lay in the range of 20 to 50 nM. Moreover, the “inhibitory activity (in words)” value on human C5aR(CD88) [1] is reported as “noteworthy inhibitory activity”. On human C5aR(CD88) [2], the half-maximal effective concentration (EC50) is over 1430 nM and the “agonistic activity (in words)” value is “pure antagonists”. Also, in series [3], the “Solubility in 20 mM HEPES pH 7.4 (% of 200 μM)” value is on record as 13 % of 200 μM and the “solubility in aqueous HEPES buffer (pH 7.4)” value is 13%. Further, the Papp A→B at 120 min, 50 μM in [4] (Caco-2, TC-7 cells, 50 μM, apical pH 6.5, basolateral pH 7.4, 120 min at 37° C.) was 14.2 ×10⁻⁶ cm/s. Also, the Papp A→B at 120 min, 50 μM in [4] (Caco-2, values in text) turned out to be 14.3 ×10⁻⁶ cm/s.

For `CC(=O)N[C@@H](Cc1ccccc1)C(=O)N[C@H]1CCCNC(=O)[C@H](CCCNC(=N)N)NC(=O)[C@H](Cc2c[nH]c3ccccc23)NC(=O)[C@@H](C)NC(=O)[C@@H]2CCCN2C1=O` [compound 47], the IC50 at human C5aR(CD88) [1] (setting [8]) was over 2000 nM; at C5aR [5], 24000 nM.

Take `CC(=O)N[C@@H](Cc1ccccc1)C(=O)N[C@H]1CCCNC(=O)[C@H](Cc2ccccc2)NC(=O)[C@H](Cc2c[nH]c3ccccc23)NC(=O)[C@@H](CC2CCCCC2)NC(=O)[C@@H]2CCCN2C1=O` [Compound 1, Ac-Phe-[Orn-Pro-cha-Trp-Phe]] (Ac-F[Orn]P[dCha]WF; lactam 2-C): the IC50 is 20 to 50 nM on human C5aR(CD88) [1] (setting [8]); 23 nM on human C5aR(CD88) [1] (functional assay of example 11, values in text, read-out: IC50); 450 nM on C5aR [5]; 28 nM at C5aR [6]. The “inhibitory activity (in words)” value against human C5aR(CD88) [1] is listed as “without significant loss of activity”; at human C5aR(CD88) [1] (listed as Ac-Phe-[Orn-Pro-cha-Trp-Phe]) it was “noteworthy inhibitory activity”. Moreover, the EC50 at human C5aR(CD88) [2] (agonistic activity, no C5a added, read-out: EC50) is over 1430 nM. On human C5aR(CD88) [2], the “agonistic activity (in words)” value was “pure antagonists”. The “Solubility in 20 mM HEPES pH 7.4 (% of 200 μM)” value in series [3] is recorded as 8 % of 200 μM. Moreover, the “solubility in aqueous HEPES buffer (pH 7.4)” value in series [3] worked out at 8%.

As to “Ac-Phe-Lys-Ala-Cha-Ala-Leu-N-Methyl(D)ala-Arg-OH”, the IC50 on C5aR [7] was 12 nM.

`CC(C)NCC(O)COc1cccc2ccccc12` (stereo not shown) [Propanolol, reference compound] registered a Papp A→B at 120 min, 50 μM in series [4] (Caco-2, values in text) of 31.1 ×10⁻⁶ cm/s.

In general, EC50 refers to the concentration that produces a half-maximal response. As usually defined, the Papp A→B is how fast a substance crosses the layer from the apical side.
